A short description of test [1]: Inhibition of pig kidney aldehyde reductase by spectrophotometry. The arrangement: species or system Sus scrofa.
Test [2] deals with Aldo-keto reductase family 1 member B1 (Sus scrofa, UniProt P80276). In words: Inhibition of pig lens aldose reductase by spectrophotometry.
A short description of test [3]: Inhibition of bovine liver NADH oxidase. On the set-up: species or system Bos taurus.
The target of test [4] is Aldo-keto reductase family 1 member B1 (Sus scrofa) (UniProt P80276). In words: Inhibition of pig lens aldose reductase at 0.54 uM by Lineweaver-Burke plot.
The target is the same in test [5]. In words: Inhibition of pig lens aldose reductase at 1.8 uM by Lineweaver-Burke plot.

Activity calls are given as the source filed them. No cut-off for these calls is given here.

As usually defined, the IC50 is the midpoint of a concentration-inhibition curve. For the molecule `COc1cc(O)c2c(=O)c(OS(=O)(=O)O)c(-c3ccc(O)c(OC)c3)oc2c1`, the IC50 in test [1] is 43.5 µM; in test [2], 30.1 µM; in test [3] it was over 67 µM.
The like results for `COc1ccc(-c2oc3cc(OS(=O)(=O)O)cc(O)c3c(=O)c2O[C@@H]2O[C@H](CO)[C@@H](O)[C@H](O)[C@H]2O)cc1O` were, in that order, over 50 µM, 5 µM and over 50 µM.
The like results for `O=c1c(OS(=O)(=O)O)c(-c2ccc(O)c(O)c2)oc2cc(O)cc(O)c12` were, in that order, 55.6 µM, 50.9 µM and over 71 µM.
In the case of `COc1cc(-c2oc3cc(OS(=O)(=O)O)cc(O)c3c(=O)c2OS(=O)(=O)O)ccc1O`, the IC50 was 49.5 µM in test [1], 1.8 µM in test [2] and over 54 µM in test [3]. Moreover, the result in test [4] and in test [5] was Active.
Turning to `O=c1c(O[C@@H]2O[C@H](CO)[C@@H](O)[C@H](O)[C@H]2O)c(-c2ccc(O)c(O)c2)oc2cc(O)cc(O)c12` [ISOQUERCETIN], the values for the IC50 in test [1], in test [2] and in test [3] were over 64 µM, 16 µM and over 64 µM, respectively.
Turning to `COc1cc(-c2oc3cc(O)cc(O)c3c(=O)c2O)ccc1O` [ISORHAMNETIN], the IC50 was over 95 µM in test [1], over 95 µM in test [2] and 88.6 µM in test [3].
On to `COc1cc(-c2oc3cc(O)cc(O)c3c(=O)c2OS(=O)(=O)O)ccc1O` [PERSICARIN], for which the half-inhibitory concentration (IC50) was over 69 µM in test [1], 69 µM in test [2] and over 69 µM in test [3].
For the molecule `O=c1c(O)c(-c2ccc(O)c(O)c2)oc2cc(O)cc(O)c12` [QUERCETIN], the IC50 was over 91 µM in test [1], 50.1 µM in test [2] and 65.3 µM in test [3].
Turning to `COc1cc(O)c2c(=O)c(O)c(-c3ccc(O)c(OC)c3)oc2c1` [RHAMNAZIN], the IC50 in test [1], in test [2] and in test [3] was over 91 µM throughout.

For the origin of these results see ChEMBL document CHEMBL1158227, “Effect of Polygonum hydropiper sulfated flavonoids on lens aldose reductase and related enzymes” (J Nat Prod, 1996).
